Tests used:
Type in all cases: cell-based
[1] = tested on: Human aortic endothelial cells (HAEC); test: LD50 (toxicity to cells; visual signs of toxicity scored in the VCAM-1 assay)
Experimental: (§1) Human aortic endothelial cells (HAEC) were purchased from Clonetics and maintained in EGM media (Clonetics) supplemented with 5% fetal bovine serum (FBS). In a typical experiment, cells were seeded in 96-well plates. The next day cells were stimulated with TNF-alpha (1 ng/ml) purchased from Boehringer Mannheim in the presence or absence of compounds dissolved in dimethylsulphoxide (DMSO). To establish a dose curve for each compound, four concentrations in 2 fold increments were used. Cells were exposed to TNF-α and compounds for approximately 16 hours. The next day, cells were examined under microscope to score for visual signs of toxicity.
(§2) The degree of inhibition of various compounds, including the compounds prepared in the foregoing examples, using the assays described in Examples 6-9, are provided in Table IX. Results are expressed in micromolar quantities.

VCAM-1 = VCAM-1 assay: enzyme immunoassay of TNF-alpha induced VCAM-1 expression in endothelial cells; details: Homo sapiens, Endothelial cell; HAEC stimulated with TNF-alpha (1 ng/ml), about 16 hours with compound; read-out: VCAM-1 IC50 or % inhibition at
Experimental: The VCAM-1 assay is an enzyme immunoassay to detect tumor necrosis factor alpha (TNF-alpha) induced Vascular Cell Adhesion Molecule (VCAM-1) expression in endothelial cells.
as §1
Media was discarded and the cells were washed once with Hanks buffered saline solution (HBSS)/phosphate buffered solution (PBS) 91:1). Primary mouse monoclonal antibody against VCAM-1 purchased from Southern Biotechnology Associates (0.25 μg/ml in HBSS/PBS+5% FBS) was added and incubated at 37° C. for 30 minutes. Cells were washed with HBSS/PBS three times, and secondary antibody horse radish peroxidase (HRP)-conjugated goat anti-mouse IgG purchased from Southern Biotechnology Associates (1:500 in HBSS/PBS+5% FBS) was added and incubated at 37° C. for 30 minutes. Cells were washed with HBSS/PBS four times and peroxidase substrate 3.3′,5,5′-tetramethyl-benzidine (TMB) was added and incubated in the dark at room temperature until there was adequate blue color development. The length of incubation time was typically 5-15 minutes. 2 N sulfuric acid was added to stop the color development and the data was collected by reading the absorbance at O.D. 450 nm. The result was expressed as the percentage of control sample (cells stimulated by TNF without any compound).
as §2

ApoB/HepG2 = test: Lipid screen: ApoB ELISA on media of treated HEPG2 cells; details: Homo sapiens; HEPG2 cells treated 24 hours; ApoB accumulation in media as percentage of control; read-out: ApoB/Hep G2 IC50 or % inhibition at
Experimental: HEPG2 cell was started in 10 ml of MEM, 10% FBS, 1 mM Sodium Pyruvate. The cells were incubated in a tissue culture incubator. The cells were split into 4×96-wells plate in MEM, 10% FBS, 1 mM Sodium Pyruvate and allowed to grow to about 50% confluency and then removed.
The cells were treated with the desired concentration of compounds in 100 μl DMEM, 1% RSA for 24 hours. The compounds are dissolved in DMSO.
On the same day, 4×96-wells NuncImmunoSorb plate is coated with 100 μl of mouse anti-human ApoB monoclonal 1D1 (1:1000 dilution in 1×PBS, pH 7.4). The coating is allowed to stand overnight.
The coated plate is washed 3 times with 1×PBS, pH 7.4, −0.05% Tween 20. 100 μl of the standards is added to the selected wells. ApoB standards are prepared at 6.25, 3.12, 1.56, 0.78, 0.39 ng, and each concentration is done in triplicates.
90 μl of 1×PBS, pH 7.4, −0.05% Tween 20 is added to each well corresponding to the sample. 10 μl of media is transferred from the treated HEPG2 plates to the ApoB ELISA plate. The plate is incubated at room temperature for 2 hours, rocking gently.
Wash the coated plate 3× with 1×PBS, pH 7.4, −0.05% Tween 20. Add 100 μl of sheep anti-human ApoB polyclonal from Boehringer Mannheim. (1:2000 dilution in 1×PBS, pH 7.4, −0.05% Tween 20). Incubate at room temperature for 1 hour, rocking gently. Wash the coated plate 3× with 1×PBS, pH 7.4, −0.05% Tween 20. Add 100 μl of rabbit anti-sheep IgG (1:2000 dilution in 1×PBS, pH 7.4, −0.05% Tween 20). Incubate at room temperature for 1 hour, rocking gently. Wash the coated plate 3× with 1×PBS, pH 7.4, −0.05% Tween 20. Add 100 μl of substrate (10 ml of distilled water, 100 μl of TMB (10 mg/ml), and 1 μl of hydrogen peroxide). Allow color to emerge and stop reaction with 25 ul of 8N sulfuric acid. Wells are read with MicroPlate Reader @ […]. Graph accumulation of ApoB in media as a percentage of control for each sample and their concentration. A determination of IC50 is obtained from the graph.

Row | Structure (SMILES) | LD50 at [1] | IC50 (VCAM-1) | IC50 (ApoB/HepG2)
1 | CC(C)(Sc1cc(C(C)(C)C)c(O)c(C(C)(C)C)c1)Sc1cc(C(C)(C)C)c(OCC(O)CS(=O)(=O)O)c(C(C)(C)C)c1 (centres unmarked) | 50.0 µM | 10 µM | –
2 | CCN(CC)C(=O)c1ccc(CSc2cc(C(C)(C)C)c(O)c(C(C)(C)C)c2)cc1 | – | 12.5 µM | 40 µM
3 | CC(C)(Sc1cc(C(C)(C)C)c(O)c(C(C)(C)C)c1)Sc1cc(C(C)(C)C)c(OC[C@@H](O)[C@@H](O)[C@@H](O)CO)c(C(C)(C)C)c1 | 25.0 µM | 12.5 µM | 6 µM
4 | CC(C)(Sc1cc(C(C)(C)C)c(O)c(C(C)(C)C)c1)Sc1cc(C(C)(C)C)c(OCC2OC(O)[C@@H](O)[C@H]2O)c(C(C)(C)C)c1 (some centres unmarked) | – | 8 µM | –
5 | CN(C)C(=O)c1ccc(CSc2cc(C(C)(C)C)c(O)c(C(C)(C)C)c2)cc1 | 50.0 µM | 12.5 µM | 85 µM
6 | CC(C)(Sc1cc(C(C)(C)C)c(O)c(C(C)(C)C)c1)Sc1cc(C(C)(C)C)c(OCC(O)COC(=O)C(O)C(O)C(O)C(O)CO)c(C(C)(C)C)c1 (centres unmarked) | 50.0 µM | 7 µM | 30 µM

From patent publication US20050171028A1, “Thioketals and thioethers for inhibiting the expression of VCAM-1” (Atherogenics Pharmaceuticals, Inc., priority 2000, published 2005)
